The values below come from US12448388B2, “PRMT5 inhibitors and uses thereof” (Gilead Sciences, Inc., priority 2023, dated 2025).

This test has as its system HCT116 MTAP-deleted cell lines. Nature of the test: Cell viability assay (CellTiter-Glo, 7 days), HCT116 MTAP-deleted. Type of test: cell-based. Conditions: Homo sapiens, HCT-116; cell viability, HCT116 MTAP-deleted; class symbols; read-out: CC50. The essentials: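 Read-out was CellTiter-Glo luminescence after a 7-day incubation (37 °C, 5% CO2) of HCT116 cells, MTAP-deleted or WT, on dose-response compound plates. CC50 values come from each line; where marked *, selectivity is overstated because poor solubility impaired the WT CC50 measurement.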
For orientation: Cellular ATP, detected with luciferase, serves as a proxy for viable cell number.
In the case of `CN(C(=O)c1cc2c(cc1F)nc(N)c1cncn12)[C@@H]1COc2cc(-c3ccc(C(F)(F)F)nc3)ccc21` [Ff-229, (S)-4-amino-7-fluoro-N-methyl-N-(6-(6-(trifluoromethyl)pyridin-3-yl)-2,3-dihydrobenzofuran-3-yl)imidazo[1,5-a]quinoxaline-8-carboxamide], the CC50 was below 100 nM.

Turning to `CN(C(=O)c1cc2c(cc1F)nc(N)c1cncn12)[C@@H]1COc2cc(-c3ccc(C(F)(F)F)cc3)ccc21` [Ff-230, (S)-4-amino-7-fluoro-N-methyl-N-(6-(4-(trifluoromethyl)phenyl)-2,3-dihydrobenzofuran-3-yl)imidazo[1,5-a]quinoxaline-8-carboxamide], the CC50 lay within 100 to 1000 nM. The same measure for `CN(C(=O)c1cc2c(cc1F)nc(N)c1cncn12)[C@@H]1COc2cc(-c3csc(C(F)(F)F)n3)ccc21` [Ff-231, (S)-4-amino-7-fluoro-N-methyl-N-(6-(2-(trifluoromethyl)thiazol-4-yl)-2,3-dihydrobenzofuran-3-yl)imidazo[1,5-a]quinoxaline-8-carboxamide]: 100 to 1000 nM; for `CN(C(=O)c1cc2c(cc1F)nc(N)c1cncn12)[C@@H]1COc2cc(-c3cnc(C(F)(F)F)s3)ccc21` [Ff-232, (S)-4-amino-7-fluoro-N-methyl-N-(6-(2-(trifluoromethyl)thiazol-5-yl)-2,3-dihydrobenzofuran-3-yl)imidazo[1,5-a]quinoxaline-8-carboxamide]: below 100 nM.

In the case of `CN(C(=O)c1cc2c(cc1F)nc(N)c1cncn12)[C@@H]1COc2cc(-c3cnc(C(F)F)s3)ccc21` [Ff-233, (S)-4-amino-N-(6-(2-(difluoromethyl)thiazol-5-yl)-2,3-dihydrobenzofuran-3-yl)-7-fluoro-N-methylimidazo[1,5-a]quinoxaline-8-carboxamide], the CC50 was below 100 nM. With `Nc1nc2cc(F)c(C(=O)N3CCO[C@@H]4Cc5cc(-c6cnn(C(F)(F)F)c6)ccc5[C@@H]43)cc2n2cncc12` [Ff-234, (4-amino-7-fluoroimidazo[1,5-a]quinoxalin-8-yl)((4aS,9aR)-7-(1-(trifluoromethyl)-1H-pyrazol-4-yl)-2,3,9,9a-tetrahydroindeno[2,1-b][1,4]oxazin-4(4aH)-yl)methanone], the CC50 was 100 to 1000 nM. Regarding `Nc1nc2cc(F)c(C(=O)N3CCO[C@@H]4Cc5cc(-c6cnn(C(F)F)c6)ccc5[C@@H]43)cc2n2cncc12` [Ff-235, (4-amino-7-fluoroimidazo[1,5-a]quinoxalin-8-yl)((4aS,9aR)-7-(1-(difluoromethyl)-1H-pyrazol-4-yl)-2,3,9,9a-tetrahydroindeno[2,1-b][1,4]oxazin-4(4aH)-yl)methanone], the cytotoxic concentration (CC50) was below 100 nM.

Consider `Nc1nc2cc(F)c(C(=O)N3CCO[C@@H]4Cc5cc(C6CC6)ccc5[C@@H]43)cc2n2cncc12` [Ff-236, (4-amino-7-fluoroimidazo[1,5-a]quinoxalin-8-yl)((4aS,9aR)-7-cyclopropyl-2,3,9,9a-tetrahydroindeno[2,1-b][1,4]oxazin-4(4aH)-yl)methanone], for which the CC50 lay in the range of 100 to 1000 nM. For `CN(C(=O)c1cc2c(cc1F)nc(N)c1cncn12)[C@@H]1COc2cc(-c3csc(C(F)F)n3)ccc21` [Ff-237, (S)-4-amino-N-(6-(2-(difluoromethyl)thiazol-4-yl)-2,3-dihydrobenzofuran-3-yl)-7-fluoro-N-methylimidazo[1,5-a]quinoxaline-8-carboxamide], the CC50 was below 100 nM. Turning to `CN(C(=O)c1cc2c(cc1F)nc(N)c1cncn12)[C@@H]1COc2cc(-c3ccc(C(F)(F)F)cn3)ccc21` [Ff-238, (S)-4-amino-7-fluoro-N-methyl-N-(6-(5-(trifluoromethyl)pyridin-2-yl)-2,3-dihydrobenzofuran-3-yl)imidazo[1,5-a]quinoxaline-8-carboxamide], the CC50 is below 100 nM. Turning to `Nc1nc2cc(F)c(C(=O)N3CCO[C@@H]4Cc5cc(-c6ccc(C(F)(F)F)nc6)ccc5[C@@H]43)cc2n2cncc12` [Ff-239, (4-amino-7-fluoroimidazo[1,5-a]quinoxalin-8-yl)((4aS,9aR)-7-(6-(trifluoromethyl)pyridin-3-yl)-2,3,9,9a-tetrahydroindeno[2,1-b][1,4]oxazin-4(4aH)-yl)methanone], the CC50 is below 100 nM.

In the case of `Nc1nc2cc(F)c(C(=O)N3CCO[C@@H]4Cc5cc(-c6ccc(C(F)(F)F)cc6)ccc5[C@@H]43)cc2n2cncc12` [Ff-240, (4-amino-7-fluoroimidazo[1,5-a]quinoxalin-8-yl)((4aS,9aR)-7-(4-(trifluoromethyl)phenyl)-2,3,9,9a-tetrahydroindeno[2,1-b][1,4]oxazin-4(4aH)-yl)methanone], the CC50 lay within 100 to 1000 nM. The same measure for `C[C@H]1CN(C(=O)c2ccc3nc(N)c4cncn4c3c2)[C@H]2c3cc(F)c(C(F)(F)F)cc3C[C@H]2O1` [Ff-246, (4-aminoimidazo[1,5-a]quinoxalin-8-yl)((2S,4aS,9aR)-6-fluoro-2-methyl-7-(trifluoromethyl)-2,3,9,9a-tetrahydroindeno[2,1-b][1,4]oxazin-4(4aH)-yl)methanone]: below 100 nM. The same measure for `C[C@H]1CN(C(=O)c2cc3c(cn2)nc(N)c2cncn23)[C@H]2c3cc(F)c(C(F)(F)F)cc3C[C@H]2O1` [Ff-247, (4-aminoimidazo[1,5-a]pyrido[3,4-e]pyrazin-8-yl)((2S,4aS,9aR)-6-fluoro-2-methyl-7-(trifluoromethyl)-2,3,9,9a-tetrahydroindeno[2,1-b][1,4]oxazin-4(4aH)-yl)methanone]: below 100 nM; for `C[C@@H]1C[C@@H]2Oc3cc(C(F)(F)F)c(F)cc3[C@@H]2N(C(=O)c2cc3c(cc2F)nc(N)c2cncn23)C1` [Ff-248, (4-amino-7-fluoroimidazo[1,5-a]quinoxalin-8-yl)((3R,4aS,9bS)-8-fluoro-3-methyl-7-(trifluoromethyl)-3,4,4a,9b-tetrahydrobenzofuro[3,2-b]pyridin-1(2H)-yl)methanone]: below 100 nM; for `C[C@@H]1C[C@@H]2Oc3cc(C(F)(F)F)ccc3[C@@H]2N(C(=O)c2cc3c(cc2F)nc(N)c2cncn23)C1` [Ff-251, (4-amino-7-fluoroimidazo[1,5-a]quinoxalin-8-yl)((3R,4aS,9bS)-3-methyl-7-(trifluoromethyl)-3,4,4a,9b-tetrahydrobenzofuro[3,2-b]pyridin-1(2H)-yl)methanone]: below 100 nM. Regarding `CN(C(=O)c1cc2c(cc1F)nc(N)c1cncn12)[C@H]1c2ccc(C(F)(F)F)cc2[C@@H]2C[C@@H]21` [Ff-253, 4-amino-7-fluoro-N-methyl-N-((1aR,6R,6aS)-3-(trifluoromethyl)-1,1a,6,6a-tetrahydrocyclopropa[a]inden-6-yl)imidazo[1,5-a]quinoxaline-8-carboxamide], the CC50 fell in the range of 100 to 1000 nM. In the case of `CN(C(=O)c1cc2c(cn1)nc(N)c1cncn12)[C@H]1c2ccc(C(F)(F)F)cc2[C@@H]2C[C@@H]21` [Ff-254, 4-amino-N-methyl-N-((1aR,6R,6aS)-3-(trifluoromethyl)-1,1a,6,6a-tetrahydrocyclopropa[a]inden-6-yl)imidazo[1,5-a]pyrido[3,4-e]pyrazine-8-carboxamide], the CC50 was in the range of 100 to 1000 nM. For `CN(C(=O)c1cc2c(cc1F)nc(N)c1cncn12)[C@H]1c2ccc(C(F)(F)F)cc2[C@H]2C[C@H]21` [Ff-255, 4-amino-7-fluoro-N-methyl-N-((1aS,6R,6aR)-3-(trifluoromethyl)-1,1a,6,6a-tetrahydrocyclopropa[a]inden-6-yl)imidazo[1,5-a]quinoxaline-8-carboxamide], the CC50 lay within 100 to 1000 nM.

A word on the CC50: it is the concentration that lowers cell viability or growth by half.
